The target of the experiment is E3 ubiquitin-protein ligase Mdm2 (Homo sapiens, UniProt Q00987). The experiment can be described thus: Fluorescence Polarization (FP) Binding Assay. The note with it: pH 7.4; 23 °C. Here is the method:
Ki values were determined from a competition experiment in which serial dilutions of inhibitor were added to compete against a fixed concentration (1 or 10 nM) of the fluorescent ligand for binding to a fixed concentration of the protein. Ki value was determined by nonlinear regression fitting of the competition curve using a set of custom equations and an Excel curve fitting tool.
Sequence of E3 ubiquitin-protein ligase Mdm2 (Q00987 whole entry): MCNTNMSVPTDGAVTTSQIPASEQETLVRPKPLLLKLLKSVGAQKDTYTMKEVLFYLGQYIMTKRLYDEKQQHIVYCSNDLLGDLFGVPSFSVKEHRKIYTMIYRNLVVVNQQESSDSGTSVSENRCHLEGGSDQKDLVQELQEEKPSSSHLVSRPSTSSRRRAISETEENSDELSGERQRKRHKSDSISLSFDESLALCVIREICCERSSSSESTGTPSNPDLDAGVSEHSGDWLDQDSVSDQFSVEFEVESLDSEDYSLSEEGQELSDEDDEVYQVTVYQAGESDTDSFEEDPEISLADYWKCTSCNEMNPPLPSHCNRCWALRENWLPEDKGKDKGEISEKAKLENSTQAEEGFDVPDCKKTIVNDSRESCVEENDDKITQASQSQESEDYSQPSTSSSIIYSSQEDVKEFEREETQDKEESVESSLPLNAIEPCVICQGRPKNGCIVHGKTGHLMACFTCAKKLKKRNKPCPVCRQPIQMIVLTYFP
For the compound `O=C(N[C@@H](Cc1cn(C(=O)CCC2CCCC2)c2cc(F)ccc12)C(=O)O)c1ccccc1Oc1ccccc1` [2-phenoxybenzoyltryptophan derivative, R3C2], the Ki came out at 400 nM. With `N#Cc1ccc2c(c1)c(C[C@H](NC(=O)c1ccccc1Oc1ccccc1)C(=O)O)cn2C(=O)CCC1CCCC1` [2-phenoxybenzoyltryptophan derivative, R4C2], the Ki was found to be 600 nM.

`O=C(N[C@@H](Cc1c[nH]c2cc(Cl)ccc12)C(=O)O)c1ccccc1Oc1ccccc1` [2-phenoxybenzoyltryptophan derivative, R2C1]: the Ki turned out to be 6000 nM. The value for `O=C(N[C@@H](Cc1c[nH]c2cc(F)ccc12)C(=O)O)c1ccccc1Oc1ccccc1` [2-phenoxybenzoyltryptophan derivative, R3C1] was 20000 nM; that for `O=C(N[C@@H](Cc1cn(Cc2ccc(OCc3ccccc3)cc2)c2cc(Cl)ccc12)C(=O)O)c1ccccc1Oc1ccccc1` [2-phenoxybenzoyltryptophan derivative, R2C4] was 1000 nM. The value for `O=C(N[C@@H](Cc1cn(C(=O)CCC2CCCC2)c2cc(Cl)ccc12)C(=O)O)c1ccccc1Oc1ccccc1` [2-phenoxybenzoyltryptophan derivative, R2C2] was 800 nM. On to `Cc1ccc2c(c1)c(C[C@H](NC(=O)c1ccccc1Oc1ccccc1)C(=O)O)cn2C(=O)CCC1CCCC1` [2-phenoxybenzoyltryptophan derivative, R5C2], for which the Ki is 200 nM. The figure for `O=C(N[C@@H](Cc1cn(Cc2ccc(OCc3ccccc3)cc2)c2cc(F)ccc12)C(=O)O)c1ccccc1Oc1ccccc1` [2-phenoxybenzoyltryptophan derivative, R3C4] is 2000 nM. Turning to `N#Cc1ccc2c(c1)c(C[C@H](NC(=O)c1ccccc1Oc1ccccc1)C(=O)O)cn2C(=O)OCc1ccccc1` [2-phenoxybenzoyltryptophan derivative, R4C3], the Ki was determined as 600 nM. The value for `O=C(N[C@@H](Cc1cn(C(=O)OCc2ccccc2)c2cc(F)ccc12)C(=O)O)c1ccccc1Oc1ccccc1` [2-phenoxybenzoyltryptophan derivative, R3C3] was 800 nM; that for `N#Cc1ccc2c(c1)c(C[C@H](NC(=O)c1ccccc1Oc1ccccc1)C(=O)O)cn2Cc1ccc(OCc2ccccc2)cc1` [2-phenoxybenzoyltryptophan derivative, R4C4] was 1000 nM; that for `O=C(N[C@@H](Cc1cn(C(=O)OCc2ccccc2)c2cc(Br)ccc12)C(=O)O)c1ccccc1Oc1ccccc1` [2-phenoxybenzoyltryptophan derivative, R1C3] was 500 nM. Consider `Cc1ccc2c(c1)c(C[C@H](NC(=O)c1ccccc1Oc1ccccc1)C(=O)O)cn2C(=O)OCc1ccccc1` [2-phenoxybenzoyltryptophan derivative, R5C3], for which the Ki came out at 100 nM. The figure for `O=C(N[C@@H](Cc1cn(C(=O)CCC2CCCC2)c2cc(Br)ccc12)C(=O)O)c1ccccc1Oc1ccccc1` [2-phenoxybenzoyltryptophan derivative, R1C2] is 800 nM. The figure for `O=C(N[C@@H](Cc1c[nH]c2cc(Br)ccc12)C(=O)O)c1ccccc1Oc1ccccc1` [2-phenoxybenzoyltryptophan derivative, R1C1] is 3000 nM; for `Cc1ccc2[nH]cc(C[C@H](NC(=O)c3ccccc3Oc3ccccc3)C(=O)O)c2c1` [2-phenoxybenzoyltryptophan derivative, R5C1] it is 10000 nM; for `O=C(N[C@@H](Cc1cn(C(=O)OCc2ccccc2)c2cc(Cl)ccc12)C(=O)O)c1ccccc1Oc1ccccc1` [2-phenoxybenzoyltryptophan derivative, R2C3] it is 600 nM. For `O=C(N[C@@H](Cc1cn(Cc2ccc(OCc3ccccc3)cc2)c2cc(Br)ccc12)C(=O)O)c1ccccc1Oc1ccccc1` [2-phenoxybenzoyltryptophan derivative, R1C4], the Ki was found to be 600 nM.

As for `N#Cc1ccc2[nH]cc(C[C@H](NC(=O)c3ccccc3Oc3ccccc3)C(=O)O)c2c1` [2-phenoxybenzoyltryptophan derivative, R4C1], the Ki amounted to 10000 nM. As to `Cc1ccc2c(c1)c(C[C@H](NC(=O)c1ccccc1Oc1ccccc1)C(=O)O)cn2Cc1ccc(OCc2ccccc2)cc1` [2-phenoxybenzoyltryptophan derivative, R5C4], the Ki stood at 600 nM.
